Results taken from US9326506B2, “Preparation method, agricultural composition and applications of natural brassinolide analogs” (CHENGDU NEWSUN CROPSCIENCE CO., LTD, priority 2012, dated 2016).

Test system: rice
Assay: Low temperature assay on rice seedlings
Type: in vivo
Procedure, shortened: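 Nine-day-old etiolated rice seedlings (grown on water at 30 °C±2 °C, dark) immersed in brassinolide analogues at 1–0.0001 mg/L or pure water, held at 1–5 °C for 24 hr. Plant height, leaf area, root weight read at 3, 6, 9, 12 days; leaf and tiller number at 12 days.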

SMILES: CC[C@@H](C(C)C)[C@@H](O)[C@H](O)[C@@H](C)[C@H]1CCC2C3COC(=O)C4C[C@H](O)[C@H](O)C[C@]4(C)C3CC[C@@]21C (stereo partly shown) [BR2]
- Area of leaf (0.0001 mg/l, 1 °C, 3 days): 9.8 cm^2
- Height (0.0001 mg/l, 1 °C, 3 days): 6.8 cm
- Weight of root (0.0001 mg/l, 1 °C, 3 days): 2.8 g
- Area of leaf (0.0001 mg/l, 1 °C, 6 days): 11.2 cm^2
- Height (0.0001 mg/l, 1 °C, 6 days): 6.9 cm
- Weight of root (0.0001 mg/l, 1 °C, 6 days): 3.1 g
- Area of leaf (0.0001 mg/l, 1 °C, 9 days): 12.4 cm^2
- Height (0.0001 mg/l, 1 °C, 9 days): 7 cm
- Weight of root (0.0001 mg/l, 1 °C, 9 days): 3.4 g
- Area of leaf (0.0001 mg/l, 1 °C, 12 days): 13.1 cm^2
- Height (0.0001 mg/l, 1 °C, 12 days): 7.2 cm
- Number of leaf (0.0001 mg/l, 1 °C, 12 days): 3
- Number of tiller (0.0001 mg/l, 1 °C, 12 days): 3
- Weight of root (0.0001 mg/l, 1 °C, 12 days): 3.9 g
- Area of leaf (0.0001 mg/l, 2 °C, 3 days): 10 cm^2
- Height (0.0001 mg/l, 2 °C, 3 days): 6.8 cm
- Weight of root (0.0001 mg/l, 2 °C, 3 days): 2.8 g
- Area of leaf (0.0001 mg/l, 2 °C, 6 days): 11.7 cm^2
- Height (0.0001 mg/l, 2 °C, 6 days): 7 cm
- Weight of root (0.0001 mg/l, 2 °C, 6 days): 3.0 g
- Area of leaf (0.0001 mg/l, 2 °C, 9 days): 12.4 cm^2
- Height (0.0001 mg/l, 2 °C, 9 days): 7.1 cm
- Weight of root (0.0001 mg/l, 2 °C, 9 days): 3.2 g
- Area of leaf (0.0001 mg/l, 2 °C, 12 days): 13 cm^2
- Height (0.0001 mg/l, 2 °C, 12 days): 7.4 cm
- Number of leaf (0.0001 mg/l, 2 °C, 12 days): 3
- Number of tiller (0.0001 mg/l, 2 °C, 12 days): 3
- Weight of root (0.0001 mg/l, 2 °C, 12 days): 3.9 g
- Area of leaf (0.0001 mg/l, 3 °C, 3 days): 10 cm^2
- Height (0.0001 mg/l, 3 °C, 3 days): 6.9 cm
- Weight of root (0.0001 mg/l, 3 °C, 3 days): 2.5 g
- Area of leaf (0.0001 mg/l, 3 °C, 6 days): 11.8 cm^2
- Height (0.0001 mg/l, 3 °C, 6 days): 7.2 cm
- Weight of root (0.0001 mg/l, 3 °C, 6 days): 2.6 g
- Area of leaf (0.0001 mg/l, 3 °C, 9 days): 12.3 cm^2
- Height (0.0001 mg/l, 3 °C, 9 days): 7.4 cm
- Weight of root (0.0001 mg/l, 3 °C, 9 days): 2.9 g
- Area of leaf (0.0001 mg/l, 3 °C, 12 days): 13.2 cm^2
- Height (0.0001 mg/l, 3 °C, 12 days): 7.5 cm
- Number of leaf (0.0001 mg/l, 3 °C, 12 days): 3
- Number of tiller (0.0001 mg/l, 3 °C, 12 days): 2
- Weight of root (0.0001 mg/l, 3 °C, 12 days): 2.9 g
- Area of leaf (0.0001 mg/l, 4 °C, 3 days): 10 cm^2
- Height (0.0001 mg/l, 4 °C, 3 days): 6.9 cm
- Weight of root (0.0001 mg/l, 4 °C, 3 days): 2.5 g
- Area of leaf (0.0001 mg/l, 4 °C, 6 days): 11.7 cm^2
- Height (0.0001 mg/l, 4 °C, 6 days): 7.3 cm
- Weight of root (0.0001 mg/l, 4 °C, 6 days): 2.6 g
- Area of leaf (0.0001 mg/l, 4 °C, 9 days): 13 cm^2
- Height (0.0001 mg/l, 4 °C, 9 days): 7.5 cm
- Weight of root (0.0001 mg/l, 4 °C, 9 days): 2.9 g
- Area of leaf (0.0001 mg/l, 4 °C, 12 days): 13.4 cm^2
- Height (0.0001 mg/l, 4 °C, 12 days): 7.6 cm
- Number of leaf (0.0001 mg/l, 4 °C, 12 days): 3
- Number of tiller (0.0001 mg/l, 4 °C, 12 days): 2
- Weight of root (0.0001 mg/l, 4 °C, 12 days): 2.9 g
- Area of leaf (0.0001 mg/l, 5 °C, 3 days): 10.2 cm^2
- Height (0.0001 mg/l, 5 °C, 3 days): 7.0 cm
- Weight of root (0.0001 mg/l, 5 °C, 3 days): 2.5 g
- Area of leaf (0.0001 mg/l, 5 °C, 6 days): 12 cm^2
- Height (0.0001 mg/l, 5 °C, 6 days): 7.4 cm
- Weight of root (0.0001 mg/l, 5 °C, 6 days): 2.7 g
- Area of leaf (0.0001 mg/l, 5 °C, 9 days): 13.6 cm^2
- Height (0.0001 mg/l, 5 °C, 9 days): 7.5 cm
- Weight of root (0.0001 mg/l, 5 °C, 9 days): 2.9 g
- Area of leaf (0.0001 mg/l, 5 °C, 12 days): 14 cm^2
- Height (0.0001 mg/l, 5 °C, 12 days): 7.7 cm
- Number of leaf (0.0001 mg/l, 5 °C, 12 days): 3
- Number of tiller (0.0001 mg/l, 5 °C, 12 days): 2
- Weight of root (0.0001 mg/l, 5 °C, 12 days): 3.0 g
- Area of leaf (0.001 mg/l, 1 °C, 3 days): 10.1 cm^2
- Height (0.001 mg/l, 1 °C, 3 days): 6.9 cm
- Weight of root (0.001 mg/l, 1 °C, 3 days): 2.8 g
- Area of leaf (0.001 mg/l, 1 °C, 6 days): 11.3 cm^2
- Height (0.001 mg/l, 1 °C, 6 days): 7.1 cm
- Weight of root (0.001 mg/l, 1 °C, 6 days): 3.1 g
- Area of leaf (0.001 mg/l, 1 °C, 9 days): 12.6 cm^2
- Height (0.001 mg/l, 1 °C, 9 days): 7.1 cm
- Weight of root (0.001 mg/l, 1 °C, 9 days): 3.4 g
- Area of leaf (0.001 mg/l, 1 °C, 12 days): 13 cm^2
- Height (0.001 mg/l, 1 °C, 12 days): 7.3 cm
- Number of leaf (0.001 mg/l, 1 °C, 12 days): 3
- Number of tiller (0.001 mg/l, 1 °C, 12 days): 3
- Weight of root (0.001 mg/l, 1 °C, 12 days): 3.9 g
- Area of leaf (0.001 mg/l, 2 °C, 3 days): 9.8 cm^2
- Height (0.001 mg/l, 2 °C, 3 days): 6.9 cm
- Weight of root (0.001 mg/l, 2 °C, 3 days): 2.8 g
- Area of leaf (0.001 mg/l, 2 °C, 6 days): 11.6 cm^2
- Height (0.001 mg/l, 2 °C, 6 days): 7.1 cm
- Weight of root (0.001 mg/l, 2 °C, 6 days): 3.0 g
- Area of leaf (0.001 mg/l, 2 °C, 9 days): 12.1 cm^2
- Height (0.001 mg/l, 2 °C, 9 days): 7.1 cm
- Weight of root (0.001 mg/l, 2 °C, 9 days): 3.2 g
- Area of leaf (0.001 mg/l, 2 °C, 12 days): 13.1 cm^2
- Height (0.001 mg/l, 2 °C, 12 days): 7.3 cm
- Number of leaf (0.001 mg/l, 2 °C, 12 days): 3
- Number of tiller (0.001 mg/l, 2 °C, 12 days): 3
- Weight of root (0.001 mg/l, 2 °C, 12 days): 3.9 g
- Area of leaf (0.001 mg/l, 3 °C, 3 days): 10 cm^2
- Height (0.001 mg/l, 3 °C, 3 days): 7 cm
- Weight of root (0.001 mg/l, 3 °C, 3 days): 2.5 g
- Area of leaf (0.001 mg/l, 3 °C, 6 days): 12 cm^2
- Height (0.001 mg/l, 3 °C, 6 days): 7.1 cm
- Weight of root (0.001 mg/l, 3 °C, 6 days): 2.6 g
- Area of leaf (0.001 mg/l, 3 °C, 9 days): 12.4 cm^2
- Height (0.001 mg/l, 3 °C, 9 days): 7.3 cm
- Weight of root (0.001 mg/l, 3 °C, 9 days): 2.9 g
- Area of leaf (0.001 mg/l, 3 °C, 12 days): 13 cm^2
- Height (0.001 mg/l, 3 °C, 12 days): 7.4 cm
- Number of leaf (0.001 mg/l, 3 °C, 12 days): 3
- Number of tiller (0.001 mg/l, 3 °C, 12 days): 2
- Weight of root (0.001 mg/l, 3 °C, 12 days): 2.9 g
- Area of leaf (0.001 mg/l, 4 °C, 3 days): 10 cm^2
- Height (0.001 mg/l, 4 °C, 3 days): 7.1 cm
- Weight of root (0.001 mg/l, 4 °C, 3 days): 2.5 g
- Area of leaf (0.001 mg/l, 4 °C, 6 days): 12.1 cm^2
- Height (0.001 mg/l, 4 °C, 6 days): 7.3 cm
- Weight of root (0.001 mg/l, 4 °C, 6 days): 2.6 g
- Area of leaf (0.001 mg/l, 4 °C, 9 days): 13 cm^2
- Height (0.001 mg/l, 4 °C, 9 days): 7.5 cm
- Weight of root (0.001 mg/l, 4 °C, 9 days): 2.9 g
- Area of leaf (0.001 mg/l, 4 °C, 12 days): 13.5 cm^2
- Height (0.001 mg/l, 4 °C, 12 days): 7.5 cm
- Number of leaf (0.001 mg/l, 4 °C, 12 days): 3
- Number of tiller (0.001 mg/l, 4 °C, 12 days): 2
- Weight of root (0.001 mg/l, 4 °C, 12 days): 2.9 g
- Area of leaf (0.001 mg/l, 5 °C, 3 days): 10.2 cm^2
- Height (0.001 mg/l, 5 °C, 3 days): 7.2 cm
- Weight of root (0.001 mg/l, 5 °C, 3 days): 2.8 g
- Area of leaf (0.001 mg/l, 5 °C, 6 days): 14 cm^2
- Height (0.001 mg/l, 5 °C, 6 days): 7.5 cm
- Weight of root (0.001 mg/l, 5 °C, 6 days): 2.9 g
- Area of leaf (0.001 mg/l, 5 °C, 9 days): 15.4 cm^2
- Height (0.001 mg/l, 5 °C, 9 days): 7.8 cm
- Weight of root (0.001 mg/l, 5 °C, 9 days): 3.0 g
- Area of leaf (0.001 mg/l, 5 °C, 12 days): 16 cm^2
- Height (0.001 mg/l, 5 °C, 12 days): 8 cm
- Number of leaf (0.001 mg/l, 5 °C, 12 days): 3
- Number of tiller (0.001 mg/l, 5 °C, 12 days): 3
- Weight of root (0.001 mg/l, 5 °C, 12 days): 3.7 g
- Area of leaf (0.01 mg/l, 1 °C, 3 days): 10.1 cm^2
- Height (0.01 mg/l, 1 °C, 3 days): 7.0 cm
- Weight of root (0.01 mg/l, 1 °C, 3 days): 2.8 g
- Area of leaf (0.01 mg/l, 1 °C, 6 days): 11.6 cm^2
- Height (0.01 mg/l, 1 °C, 6 days): 7.2 cm
- Weight of root (0.01 mg/l, 1 °C, 6 days): 3.0 g
- Area of leaf (0.01 mg/l, 1 °C, 9 days): 12.4 cm^2
- Height (0.01 mg/l, 1 °C, 9 days): 7.4 cm
- Weight of root (0.01 mg/l, 1 °C, 9 days): 3.4 g
- Area of leaf (0.01 mg/l, 1 °C, 12 days): 13.6 cm^2
- Height (0.01 mg/l, 1 °C, 12 days): 7.5 cm
- Number of leaf (0.01 mg/l, 1 °C, 12 days): 3
- Number of tiller (0.01 mg/l, 1 °C, 12 days): 3
- Weight of root (0.01 mg/l, 1 °C, 12 days): 3.9 g
- Area of leaf (0.01 mg/l, 2 °C, 3 days): 10.1 cm^2
- Height (0.01 mg/l, 2 °C, 3 days): 7.1 cm
- Weight of root (0.01 mg/l, 2 °C, 3 days): 2.8 g
- Area of leaf (0.01 mg/l, 2 °C, 6 days): 11.1 cm^2
- Height (0.01 mg/l, 2 °C, 6 days): 7.2 cm
- Weight of root (0.01 mg/l, 2 °C, 6 days): 3.1 g
- Area of leaf (0.01 mg/l, 2 °C, 9 days): 12.5 cm^2
- Height (0.01 mg/l, 2 °C, 9 days): 7.5 cm
- Weight of root (0.01 mg/l, 2 °C, 9 days): 3.1 g
- Area of leaf (0.01 mg/l, 2 °C, 12 days): 13.4 cm^2
- Height (0.01 mg/l, 2 °C, 12 days): 7.5 cm
- Number of leaf (0.01 mg/l, 2 °C, 12 days): 3
- Number of tiller (0.01 mg/l, 2 °C, 12 days): 3
- Weight of root (0.01 mg/l, 2 °C, 12 days): 3.2 g
- Area of leaf (0.01 mg/l, 3 °C, 3 days): 10.2 cm^2
- Height (0.01 mg/l, 3 °C, 3 days): 7.1 cm
- Weight of root (0.01 mg/l, 3 °C, 3 days): 2.5 g
- Area of leaf (0.01 mg/l, 3 °C, 6 days): 12 cm^2
- Height (0.01 mg/l, 3 °C, 6 days): 7.2 cm
- Weight of root (0.01 mg/l, 3 °C, 6 days): 2.6 g
- Area of leaf (0.01 mg/l, 3 °C, 9 days): 12.6 cm^2
